# Assays:
# [1] = test system: TFEB; assay: High content screen measuring TFEB nuclear accumulation (TFEB nuclear/cytosol ratio) in BEAS-2B cells stably expressing TFEB-EGFP; type: cell-based, human; conditions: 18 hours incubation
# In short: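 Readout: lowest compound concentration giving a 25% rise in nuclear/cytosol TFEB-GFP ratio, from DAPI-masked nuclear and mask-expanded cytosolic signals. Cells (BEAS-2B, TFEB-EGFP stable, ~2300–2500/well) rested 8 hours, then treated 18 hours with compound serial dilutions in 2% FBS medium before PFA fixation and DAPI staining.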
# [2] = test system: BEAS-2B cells; assay: Toxicity: compound concentration needed to induce greater than 50 percent of cell loss; type: cell-based, human; conditions: 18 hours incubation
# In short: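 Reported value is the concentration giving greater than 50 percent cell loss, grouped into bins (≥25 μM; between 1 and 25 μM; ≤1 μM as "+++"). Measured by high-content imaging of DAPI-stained BEAS-2B TFEB-EGFP cells fixed after 18 h compound exposure.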
Structure (SMILES),efficacy (minimal compound concentration needed to increase TFEB nuclear/cytosol ratio by 25%) [1],toxicity (compound concentration needed to induce greater than 50 percent of cell loss) [2]
CC(C)c1nc2ccc(Nc3nc(-c4ccncc4)nc4ncccc34)cc2o1 [Compound 375],+++ (“+++” equals ≤1 μM),+ (cell loss of greater than 50 percent at a concentration that equals or is greater than 25 μM was represented as)
COc1ccc2nc(-c3ccncc3)nc(Nc3ccc4nc(C(C)C)sc4c3)c2c1 [Compound 376],+++ (“+++” equals ≤1 μM),+ (cell loss of greater than 50 percent at a concentration that equals or is greater than 25 μM was represented as)
Cc1nc2ccc(Nc3nc(-c4ccncc4)nc4c(C)cccc34)cc2o1 [Compound 377],++ (“++” equals between ≤25 μM and >1 μM),+ (cell loss of greater than 50 percent at a concentration that equals or is greater than 25 μM was represented as)
Cc1nc2ccc(Nc3nc(-c4ccncc4)nc4c(C)cccc34)cc2s1 [Compound 378],+++ (“+++” equals ≤1 μM),+ (cell loss of greater than 50 percent at a concentration that equals or is greater than 25 μM was represented as)
Cc1cccc2c(Nc3ccc4nc(C5CC5)sc4c3)nc(-c3ccncc3)nc12 [Compound 379],+++ (“+++” equals ≤1 μM),+ (cell loss of greater than 50 percent at a concentration that equals or is greater than 25 μM was represented as)
Cc1cccc2c(Nc3ccc4cnsc4c3)nc(-c3ccncc3)nc12 [Compound 380],++ (“++” equals between ≤25 μM and >1 μM),+ (cell loss of greater than 50 percent at a concentration that equals or is greater than 25 μM was represented as)
Cc1nc2ccc(Nc3nc(-c4ccncc4)nc4c(F)cccc34)cc2s1 [Compound 381],+++ (“+++” equals ≤1 μM),+ (cell loss of greater than 50 percent at a concentration that equals or is greater than 25 μM was represented as)
Fc1cccc2c(Nc3ccc4cnsc4c3)nc(-c3ccncc3)nc12 [Compound 382],+ (“+” equals >25 μM),+ (cell loss of greater than 50 percent at a concentration that equals or is greater than 25 μM was represented as)
c1cnc2nc(-c3cncs3)nc(Nc3ccc4[nH]ncc4c3)c2c1 [Compound 383],++ (“++” equals between ≤25 μM and >1 μM),+ (cell loss of greater than 50 percent at a concentration that equals or is greater than 25 μM was represented as)
Fc1cc(Nc2nc(N3CCOCC3)nc3ncccc23)cc2cc[nH]c12 [Compound 384],+++ (“+++” equals ≤1 μM),+ (cell loss of greater than 50 percent at a concentration that equals or is greater than 25 μM was represented as)
Fc1cc(Nc2nc(-c3cc[nH]c3)nc3ncccc23)cc2cc[nH]c12 [Compound 385],++ (“++” equals between ≤25 μM and >1 μM),+ (cell loss of greater than 50 percent at a concentration that equals or is greater than 25 μM was represented as)
c1cnc2nc(-c3cncs3)nc(Nc3ccc4[nH]ccc4c3)c2c1 [Compound 386],+++ (“+++” equals ≤1 μM),+ (cell loss of greater than 50 percent at a concentration that equals or is greater than 25 μM was represented as)
c1ccc2c(Nc3ccc4[nH]nnc4c3)nc(-c3cncs3)nc2c1 [Compound 387],+ (“+” equals >25 μM),+ (cell loss of greater than 50 percent at a concentration that equals or is greater than 25 μM was represented as)
c1ccc2c(Nc3ccc4cnccc4c3)nc(-c3cncs3)nc2c1 [Compound 388],+ (“+” equals >25 μM),+ (cell loss of greater than 50 percent at a concentration that equals or is greater than 25 μM was represented as)
c1ccc2c(Nc3ccc4cn[nH]c4c3)nc(-c3cncs3)nc2c1 [Compound 389],+ (“+” equals >25 μM),+ (cell loss of greater than 50 percent at a concentration that equals or is greater than 25 μM was represented as)
c1ccc2c(Nc3ccc4cnsc4c3)nc(-c3cncs3)nc2c1 [Compound 390],+ (“+” equals >25 μM),+ (cell loss of greater than 50 percent at a concentration that equals or is greater than 25 μM was represented as)
c1cnc2nc(-c3ccncc3)nc(Nc3ccc4nc(C5CC5)oc4c3)c2c1 [Compound 391],+++ (“+++” equals ≤1 μM),+ (cell loss of greater than 50 percent at a concentration that equals or is greater than 25 μM was represented as)
c1ccc2c(Nc3ccc4sncc4c3)nc(-c3cncs3)nc2c1 [Compound 392],+ (“+” equals >25 μM),+ (cell loss of greater than 50 percent at a concentration that equals or is greater than 25 μM was represented as)
c1ccc2c(Nc3ccc4cnoc4c3)nc(-c3cncs3)nc2c1 [Compound 393],++ (“++” equals between ≤25 μM and >1 μM),+ (cell loss of greater than 50 percent at a concentration that equals or is greater than 25 μM was represented as)
c1ccc2c(Nc3ccc4oncc4c3)nc(-c3cncs3)nc2c1 [Compound 394],+ (“+” equals >25 μM),+ (cell loss of greater than 50 percent at a concentration that equals or is greater than 25 μM was represented as)
Fc1cc(Nc2nc(-c3cncs3)nc3ccccc23)cc2cc[nH]c12 [Compound 395],+++ (“+++” equals ≤1 μM),+ (cell loss of greater than 50 percent at a concentration that equals or is greater than 25 μM was represented as)
Fc1cc(Nc2nc(-c3cncs3)nc3ncccc23)cc2cc[nH]c12 [Compound 396],+++ (“+++” equals ≤1 μM),+ (cell loss of greater than 50 percent at a concentration that equals or is greater than 25 μM was represented as)
c1cc(-c2cc3cnccc3c(Nc3ccc4[nH]ccc4c3)n2)ccn1 [Compound 397],++ (“++” equals between ≤25 μM and >1 μM),+ (cell loss of greater than 50 percent at a concentration that equals or is greater than 25 μM was represented as)
c1cc(-c2cc3cnccc3c(Nc3ccc4nc(C5CC5)sc4c3)n2)ccn1 [Compound 398],+++ (“+++” equals ≤1 μM),+ (cell loss of greater than 50 percent at a concentration that equals or is greater than 25 μM was represented as)
c1cc(-c2cc3cnccc3c(Nc3ccc4[nH]c(C5CC5)cc4c3)n2)ccn1 [Compound 399],+++ (“+++” equals ≤1 μM),+ (cell loss of greater than 50 percent at a concentration that equals or is greater than 25 μM was represented as)
Cc1nc2ccc(Nc3nc(-c4ccncc4)cc4ncccc34)cc2s1 [Compound 400],+++ (“+++” equals ≤1 μM),+ (cell loss of greater than 50 percent at a concentration that equals or is greater than 25 μM was represented as)
CC(=O)Nc1ccc(Nc2nc(-c3ccncc3)cc3ncccc23)cc1O [Compound 401],+++ (“+++” equals ≤1 μM),+ (cell loss of greater than 50 percent at a concentration that equals or is greater than 25 μM was represented as)

# — patent US12286442B2, “Methods and materials for increasing transcription factor eb polypeptide levels” (University of Pittsburgh—Of the Commonwealth System of …, priority 2019, dated 2025)
